Molecules are shown by their SMILES. Where two headings read alike, the source gives them in different places. Peptide text beside a SMILES is read from it.

One assay has as its target HLA-C0702 (Homo sapiens, UniProt P10321). Briefly: Competitive peptide binding assay, CIR-C0702.
In a further assay the target is HLA-C0302 (Homo sapiens, UniProt P10321, A176E/A330V/A97T/C25G/C350S/D114A/D33Y/E197K/L127V/L171W/L218V/M285V/M309V/M331V/P208H/Q277E/Q291P/R243W/R45H/S123Y/S297R/S48A/T118I/T187L/T329A/T363A/V319A). Briefly: Competitive peptide binding assay, CIR-C0302. As to conditions: HMy2.CIR-C0302 cells, reference Cy5-[…], class from inhibition at 5 and 15 μM, flow cytometry MFI; read-out: Binding affinity with HLA-C0302. As for the experimental part:
(§1) Then, competitive peptide binding assays were performed.
(Flow cytometry measures light scatter and fluorescence of single cells or particles in a stream.)

A further assay has as its target HLA-C0401 (Homo sapiens, UniProt P10321, A176E/A330V/A35S/A73E/C25G/C350S/D138N/D33S/E299K/L171W/L180R/L218V/M285V/M309V/M331V/N104K/P208H/Q277E/Q291P/R243W/R38W/S101N/S123F/S140F/S297R/S48A/T329A/T363A/V319A/V327M). Briefly: Competitive peptide binding assay, CIR-C0401. The note with it: HMy2.CIR-C0401 cells, reference Cy5-[…], class from inhibition at 5 and 15 μM, flow cytometry MFI; read-out: Binding affinity with HLA-C0401. As for the experimental part: as §1

The target in the next assay is HLA-C0102 (Homo sapiens, UniProt P10321, A176E/A330V/A35S/A97T/C350S/D114A/D33F/L171W/L180R/L218V/M285V/M309V/M331V/P208H/Q277E/Q291P/R121W/R243W/R30K/S123C/S140Y/S297R/T329A/T363A/V272M/V319A). Briefly: Competitive peptide binding assay, CIR-C0102. As to conditions: for inhibition at 5 µM / inhibition at 15 µM: read-out: Inhibition % of Cy5-reference peptide binding. The method, then:
as §1

For the next assay, the target named is HLA-C0602 (Homo sapiens, UniProt P10321, A176E/A330V/C350S/L171W/L180W/L218V/M285V/M309V/M331V/N104K/P208H/Q277E/Q291P/R121W/S101N/S123Y/S297R/T329A/T363A/V319A/V328M). Briefly: Competitive peptide binding assay, CIR-C0602.
A further assay has as its target HLA-C0801 (Homo sapiens, UniProt P10321, A176T/A330V/A97T/C350S/D114A/D138N/D33Y/E201K/E299G/L171W/L218V/M285V/M309V/M331V/P208H/Q277E/Q291P/R59Q/S123Y/S140F/S297R/S48A/T329A/T363A/V319A/V328M). Briefly: Competitive peptide binding assay, CIR-C0801. The note with it: HMy2.CIR-C0801 cells, reference Cy5-[…], class from inhibition at 5 and 15 μM, flow cytometry MFI; read-out: Binding affinity with HLA-C0801. The method, then: as §1

The next assay has as its target HLA-C0304 (Homo sapiens, UniProt P10321, A176E/A330V/A97T/C25G/C350S/D114A/D33Y/E197K/L119I/L127V/L171W/L218V/M285V/M309V/M331V/P208H/Q277E/Q291P/R243W/R45H/S123Y/S140Y/S297R/S48A/T118I/T187L/T329A/T363A/V319A). Briefly: Competitive peptide binding assay, CIR-C0304. As to conditions: HMy2.CIR-C0304 cells, reference Cy5-[…], class from inhibition at 5 and 15 μM, flow cytometry MFI; read-out: Binding affinity with HLA-C0304. The method, then:
as §1

Where [1] appears, read: HMy2.CIR-C0102 cells, reference Cy5-[…], class from inhibition at 5 and 15 μM, flow cytometry MFI, read-out: Binding affinity with HLA-C0102.

As usually defined, the inhibition is the change of the read-out against control, counted positive when it falls. Turning to `C[C@H](NC(=O)[C@H](CO)NC(=O)[C@H](C)NC(=O)[C@H](CO)NC(=O)[C@@H]1CCCN1C(=O)[C@H](C)NC(=O)[C@@H](N)Cc1ccccc1)C(=O)N[C@@H](Cc1ccccc1)C(=O)N[C@@H](Cc1ccccc1)C(=O)O` [Epitope M16] (H-FAPSASAFF-OH; N-terminus and C-terminus assumed), the IC50 is above 15 µM on HLA-C0702; below 5 µM on HLA-C0302; 5 to 15 µM on HLA-C0401; 5 to 15 µM at HLA-C0102 (setting [1]); above 15 µM at HLA-C0602. In addition, the inhibition at 5 µM at HLA-C0102 amounted to 37%. Further, the inhibition at 15 µM on HLA-C0102 amounted to 81.4%.
For `CC[C@H](C)[C@H](NC(=O)[C@H](C)NC(=O)CNC(=O)[C@@H](NC(=O)[C@H](Cc1ccc(O)cc1)NC(=O)[C@@H](NC(=O)[C@@H](N)CC(C)C)[C@@H](C)O)[C@@H](C)O)C(=O)N[C@@H](CCCCN)C(=O)N[C@@H](CC(C)C)C(=O)O` [Epitope M15] (H-LTYTGAIKL-OH; N-terminus and C-terminus assumed), the IC50 is above 15 µM on HLA-C0702, above 15 µM at HLA-C0302, below 5 µM at HLA-C0602 and below 5 µM on HLA-C0801.
For `CC[C@H](C)[C@H](NC(=O)[C@H](Cc1ccc(O)cc1)NC(=O)[C@H](CC(C)C)NC(=O)[C@H](Cc1ccccc1)NC(=O)[C@H](CCCNC(=N)N)NC(=O)[C@H](CC(N)=O)NC(=O)[C@H](CCCNC(=N)N)NC(=O)[C@H](CC(N)=O)NC(=O)[C@H](C)NC(=O)[C@@H](N)Cc1ccc(O)cc1)C(=O)O` [Epitope M73] (H-YANRNRFLYI-OH; N-terminus and C-terminus assumed), the figures for the IC50 on HLA-C0302, on HLA-C0102 (setting [1]) and on HLA-C0602 were 5 to 15 µM, above 15 µM and below 5 µM, respectively. Besides, the inhibition at 5 µM on HLA-C0102 is 23.5%. Also, at HLA-C0102, the inhibition at 15 µM was 47.8%.
As to `CC(C)[C@H](NC(=O)[C@H](CC(N)=O)NC(=O)[C@H](Cc1ccc(O)cc1)NC(=O)[C@H](C)NC(=O)[C@@H](N)CCCCN)C(=O)N[C@H](C(=O)N[C@@H](CCC(N)=O)C(=O)N[C@@H](C)C(=O)N[C@@H](Cc1ccccc1)C(=O)O)[C@@H](C)O` [Epitope M11] (H-KAYNVTQAF-OH), the IC50 is 5 to 15 µM at HLA-C0702; above 15 µM at HLA-C0302; above 15 µM at HLA-C0401; 5 to 15 µM at HLA-C0102 (setting [1]); below 5 µM on HLA-C0602.
Consider `CC[C@H](C)[C@H](NC(=O)[C@@H](NC(=O)CNC(=O)[C@H](CC(N)=O)NC(=O)[C@H](CO)NC(=O)[C@H](CC(=O)O)NC(=O)[C@H](C)NC(=O)[C@@H](N)CCSC)[C@@H](C)O)C(=O)N[C@H](C(=O)N[C@H](C(=O)O)C(C)C)[C@@H](C)O` [Epitope M48] (H-MADSNGTITV-OH; N-terminus and C-terminus assumed), for which the IC50 on HLA-C0102 (setting [1]) is above 15 µM; at HLA-C0602, above 15 µM; on HLA-C0304 it was 5 to 15 µM.
Take `CC[C@H](C)[C@H](NC(=O)[C@H](CCCNC(=N)N)NC(=O)[C@H](CC(C)C)NC(=O)[C@H](CCSC)NC(=O)[C@H](CC(N)=O)NC(=O)[C@@H]1CCCN1C(=O)[C@H](CCSC)NC(=O)[C@H](C)NC(=O)[C@@H](N)CCCNC(=N)N)C(=O)O` [Epitope M30] (H-RAMPNMLRI-OH; N-terminus and C-terminus assumed): the IC50 on HLA-C0702 is above 15 µM; on HLA-C0401 it was above 15 µM; at HLA-C0102 (setting [1]) it was 5 to 15 µM; at HLA-C0602, below 5 µM; at HLA-C0801, above 15 µM.
Take `CC(C)C[C@H](NC(=O)[C@H](C)NC(=O)[C@H](C)NC(=O)CNC(=O)[C@H](C)NC(=O)CNC(=O)[C@H](Cc1ccccc1)NC(=O)[C@@H](NC(=O)[C@@H](N)Cc1c[nH]c2ccccc12)[C@@H](C)O)C(=O)O` [Epitope M33, WTFGAGAAL] (H-WTFGAGAAL-OH; N-terminus and C-terminus assumed): the IC50 on HLA-C0302 is 5 to 15 µM; on HLA-C0304, above 15 µM.
Take `CC[C@H](C)[C@H](NC(=O)[C@H](CCCNC(=N)N)NC(=O)[C@H](CO)NC(=O)[C@H](CCSC)NC(=O)CNC(=O)[C@@H](N)Cc1ccccc1)C(=O)NCC(=O)N[C@@H](CCSC)C(=O)N[C@@H](CCC(=O)O)C(=O)N[C@H](C(=O)O)C(C)C` [Epitope M19] (H-FGMSRIGMEV-OH; N-terminus and C-terminus assumed): the IC50 on HLA-C0702 is above 15 µM; on HLA-C0102 (setting [1]), above 15 µM; on HLA-C0602, below 5 µM; on HLA-C0801, above 15 µM.
For `CC(C)C[C@H](NC(=O)[C@H](C)NC(=O)[C@@H](NC(=O)[C@H](Cc1ccccc1)NC(=O)[C@H](Cc1c[nH]c2ccccc12)NC(=O)[C@H](CO)NC(=O)[C@H](C)NC(=O)[C@@H](NC(=O)[C@@H](N)CC(N)=O)[C@@H](C)O)[C@@H](C)O)C(=O)O` [Epitope M56, NTASWFTAL] (H-NTASWFTAL-OH; N-terminus and C-terminus assumed), the IC50 is above 15 µM at HLA-C0102 (setting [1]), above 15 µM on HLA-C0602 and 5 to 15 µM on HLA-C0801. Moreover, the inhibition at 5 µM on HLA-C0102 is 17.3%. Besides, at HLA-C0102, the inhibition at 15 µM amounted to 46.5%.
Regarding `CC[C@H](C)[C@H](NC(=O)[C@H](CCC(N)=O)NC(=O)[C@H](CC(C)C)NC(=O)[C@H](C)NC(=O)[C@H](C)N)C(=O)N1CCC[C@H]1C(=O)N[C@@H](Cc1ccccc1)C(=O)N[C@@H](C)C(=O)N[C@@H](CCSC)C(=O)O` [Epitope M66] (H-AALQIPFAM-OH; N-terminus and C-terminus assumed), the IC50 at HLA-C0602 was 5 to 15 µM; at HLA-C0304, below 5 µM.
As to `CC(C)[C@H](NC(=O)CNC(=O)[C@H](CCCNC(=N)N)NC(=O)[C@@H](NC(=O)[C@H](Cc1ccccc1)NC(=O)[C@H](CO)NC(=O)[C@@H](N)CC(N)=O)[C@@H](C)O)C(=O)N[C@@H](Cc1ccc(O)cc1)C(=O)N[C@@H](Cc1ccc(O)cc1)C(=O)O` [Epitope M129] (H-NSFTRGVYY-OH; N-terminus and C-terminus assumed), the IC50 on HLA-C0302 and on HLA-C0102 (setting [1]) was above 15 µM each time. Moreover, on HLA-C0102, the inhibition at 5 µM was 11.3%. Also, the inhibition at 15 µM at HLA-C0102 came to 34.3%.
As for `CSCC[C@H](NC(=O)[C@H](CO)NC(=O)[C@H](CCCNC(=N)N)NC(=O)[C@@H](NC(=O)[C@H](CCCNC(=N)N)NC(=O)[C@H](C)NC(=O)[C@H](Cc1ccccc1)NC(=O)[C@H](CC(C)C)NC(=O)[C@@H](N)CCCNC(=N)N)[C@@H](C)O)C(=O)O` [Epitope M41] (H-RLFARTRSM-OH; N-terminus and C-terminus assumed), at HLA-C0702, the IC50 is above 15 µM. Further, on HLA-C0102, the IC50 is above 15 µM, the inhibition at 5 µM came out at 9.56% and the inhibition at 15 µM amounted to 35.7%. Besides, at HLA-C0801, the IC50 lay in the range of 5 to 15 µM.
As to `CC[C@H](C)[C@H](NC(=O)[C@H](C)NC(=O)[C@H](CC(C)C)NC(=O)[C@@H](NC(=O)[C@@H](N)C(C)C)[C@@H](C)O)C(=O)N[C@@H](CC(C)C)C(=O)N[C@H](C(=O)N[C@@H](C)C(=O)N[C@@H](CC(C)C)C(=O)O)[C@@H](C)O` [Epitope M3, VTLAILTAL] (H-VTLAILTAL-OH; N-terminus and C-terminus assumed), the IC50 was 5 to 15 µM at HLA-C0702, below 5 µM on HLA-C0401, below 5 µM on HLA-C0102 (setting [1]) and above 15 µM on HLA-C0602. Besides, on HLA-C0102, the inhibition at 5 µM came to 69.2%. Besides, the inhibition at 15 µM on HLA-C0102 amounted to 87.4%.
